Assays:
Rattus norvegicus = settings: oral
Mus musculus = settings: oral
[1] = short-term, duration: 1 weeks, diet, M, Wistar, Body Weight: ~32% weight loss
[2] = short-term, duration: 28 days, F, Sprague-Dawley, Body Weight: Decreased body weight gain (21%)
[3] = short-term, duration: 28 days, F, Sprague-Dawley, Hematological: Decreased MCH and MCHC + Immunotoxicological: Decreased phagocytosis by fixed tissue macrophages in the liver
[4] = short-term, duration: 28 days, F, Sprague-Dawley, Hepatic: Single cell necrosis
[5] = acute, duration: 1 days, gavage, F, Body Weight: 12% decreased body weight 30 days post-exposure + Endocrine: 2-fold increase in T3 and 4-fold increase in T4 levels 30 days …
[6] = developmental, duration: 10 days, gavage, F, Body Weight: No weight gain at 6.4 mg/kg/day and weight loss at 12.8 mg/kg/day (net change of -2.4)
[7] = developmental, duration: 10 days, gavage, F, Developmental: 18-22% decreases in fetal weight per litter at ?1 mg/kg/day / decreases in live fetuses per litter at 12.8 mg/kg/day (4.6 …
[8] = short-term, duration: 4 weeks, F, B6C3F1, Immunotoxicological: Decreases in splenic T-cells, T-cell subsets, and macrophages

Q: With O=C(O)C(F)(F)C(F)(F)C(F)(F)C(F)(F)C(F)(F)C(F)(F)C(F)(F)C(F)(F)C(F)(F)F [Perfluorodecanoic acid] as the molecule, how does the LOAEL (Rattus norvegicus; acute, duration: 1 days, gavage, M, Wistar, Body Weight: 8% weight loss was observed 10-days post-exposure) read?
A: 50 mg/kg-day

Q: And the NOAEL (Rattus norvegicus; acute, duration: 1 days, gavage, M, Wistar, Neurological: No alteration in performance on novel object recognition test)?
A: 50 mg/kg-day

Q: And the LOAEL (Rattus norvegicus; [1])?
A: 9.5 mg/kg-day

Q: What about the NOAEL (Rattus norvegicus; [1]) of the same molecule?
A: 4.7 mg/kg-day

Q: And the NOAEL (Rattus norvegicus; short-term, duration: 1 weeks, diet, M, Wistar, Hepatic: Increases in liver weight at ?2.4 mg/kg/day / increases in hepatic cholesterol at 9.5 mg/kg/day)?
A: 9.5 mg/kg-day

Q: And the LOAEL (Rattus norvegicus; [2])?
A: 1 mg/kg-day

Q: And the NOAEL (Rattus norvegicus; [2])?
A: 0.5 mg/kg-day

Q: And the LOAEL (Rattus norvegicus; [3])?
A: 0.25 mg/kg-day

Q: And the NOAEL (Rattus norvegicus; [3])?
A: 0.125 mg/kg-day

Q: What about the LOAEL (Rattus norvegicus; [4]) of the same molecule?
A: 0.5 mg/kg-day

Q: What about the NOAEL (Rattus norvegicus; [4]) of the same molecule?
A: 0.25 mg/kg-day

Q: What about the LOAEL (Mus musculus; [5]) of the same molecule?
A: 80 mg/kg-day

Q: What about the NOAEL (Mus musculus; [5]) of the same molecule?
A: 40 mg/kg-day

Q: What about the NOAEL (Mus musculus; acute, duration: 1 days, gavage, F, Cardiovascular: No histological alterations in the heart 30 days post-exposure / decreased relative heart weight at 80 mg/kg/day + Hepatic…) of the same molecule?
A: 80 mg/kg-day

Q: What about the LOAEL (Mus musculus; acute, duration: 1 days, gavage, F, Death: LD50 in 30-day observation period) of the same molecule?
A: 120 mg/kg-day

Q: What about the NOAEL (Mus musculus; acute, duration: 1 days, gavage, F, Hepatic: Increase in hepatic lipids and liver weight 2 days post-exposure at 40 mg/kg/day) of the same molecule?
A: 160 mg/kg-day

Q: And the LOAEL (Mus musculus; acute, duration: 1 days, gavage, F, Immunotoxicological: 28% decrease in relative spleen weight at 80 mg/kg/day / atrophy and lymphoid depletion in thymus and spleen at 160 mg…)?
A: 160 mg/kg-day

Q: What about the NOAEL (Mus musculus; developmental, duration: 1 days, gavage, M, CD1, Developmental: No alteration in spontaneous activity or habituation at 2-4 months of age) of the same molecule?
A: 10.8 mg/kg-day

Q: And the LOAEL (Mus musculus; [6])?
A: 6.4 mg/kg-day

Q: What about the NOAEL (Mus musculus; [6]) of the same molecule?
A: 3 mg/kg-day

Q: What about the LOAEL (Mus musculus; developmental, duration: 10 days, gavage, F, Body Weight: No weight gain at 6.4 mg/kg/day and weight loss at 12.8 mg/kg/day (net change of -2.4) + Developmental: 18-22% decreases in …) of the same molecule?
A: 12.8 mg/kg-day

Q: And the LOAEL (Mus musculus; [7])?
A: 1 mg/kg-day

Q: What about the NOAEL (Mus musculus; [7]) of the same molecule?
A: 0.3 mg/kg-day

Q: What about the NOAEL (Mus musculus; short-term, duration: 4 weeks, F, B6C3F1) of the same molecule?
A: 5 mg/kg-day

Q: And the LOAEL (Mus musculus; [8])?
A: 1.25 mg/kg-day

Q: What about the NOAEL (Mus musculus; [8]) of the same molecule?
A: 0.625 mg/kg-day

Q: And the LOAEL (Mus musculus; short-term, duration: 10 days, diet, M, Body Weight: 33% weight loss)?
A: 78 mg/kg-day

Q: What about the NOAEL (Mus musculus; short-term, duration: 10 days, diet, M, Hepatic: 36% increase in liver weight) of the same molecule?
A: 78 mg/kg-day
